Reference: US4061862A, “Derivatives of 7-(cyclized)phenylglycyl-3-triazolo-thio methyl cephalosporin” (priority 1976, dated 1977)
Values after ≈ are worked out from the molar mass of the structure shown. Where two headings read alike, the source gives them in different places.

What was measured:
[1] = Paper chromatograms of rat urine for antibiotically active metabolites after IM administration; format: in vivo; settings: rat urine 0-2 and 2-4 hours; for Antibiotically active spots in urine: paper chromatography system No. 9
Experimental: Paper chromatograms were run on rat urine collected between 0 and 2 and between 2 and 4 hours, following IM administration of BL-S1052 and BL-S640, for the detection of antibiotically active metabolites using descending chromatography with system No. 9 (butyl acetate:n-butanol:glacial acetic acid:H2 O = 80:15:40:24).

K. pneumoniae A15130 = test: Antibiotic spectrum in nutrient broth, MIC; format: cell-based; settings: Klebsiella pneumoniae, 10^-4 dilution, BL-S1052 adjusted for 97.5% content of BL-S640
Source text: (§1) Antibiotic Spectrum in Nutrient Broth
(§2) **Dilution of overnight broth culture.
(§3) ^(1) Adjusted for 97.5% content of BL-S640. In other words, the
(§4) numerical values are lowered, i.e. improved. This adjustment was also mad
(§5) in the tests reported below or in the alternative, a larger weight was
(§6) used to provide equivalent dosage.

Sal. enteritidis A9531 = test: Antibiotic spectrum in nutrient broth, MIC; format: cell-based; settings: Salmonella enterica, 10^-4 dilution, BL-S1052 adjusted for 97.5% content of BL-S640
Source text: as §1, §2, §3, §4, §5, §6

Ps. Aeruginosa A9843A = test: Antibiotic spectrum in nutrient broth, MIC; format: cell-based; settings: Pseudomonas aeruginosa
Source text: as §1, §2, §3, §4, §5, §6

S. aureus Smith A9537 = test: Antibiotic spectrum in nutrient broth, MIC; format: cell-based; settings: Staphylococcus aureus, BL-S1052 adjusted for 97.5% content of BL-S640
Source text: as §1, §2, §3, §4, §5, §6

[2] = test system: S. aureus Meth-Res A15097; test: Antibiotic spectrum in nutrient broth, MIC; format: cell-based; settings: Staphylococcus aureus; 10^-3 dilution; BL-S1052 adjusted for 97.5% content of BL-S640
Source text: as §1, §2, §3, §4, §5, §6

E. coli Juhl A15119 = test: Antibiotic spectrum in nutrient broth, MIC; format: cell-based; settings: Escherichia coli, JUHLA15119; 10^-4 dilution; BL-S1052 adjusted for 97.5% content of BL-S640
Source text: as §1, §2, §3, §4, §5, §6

Pr. mirabilis A9900 = test: Antibiotic spectrum in nutrient broth, MIC; format: cell-based; settings: Proteus mirabilis, 10^-4 dilution, BL-S1052 adjusted for 97.5% content of BL-S640
Source text: as §1, §2, §3, §4, §5, §6

Ent. cloacae A9657 = test: Antibiotic spectrum in nutrient broth, MIC; format: cell-based; settings: Enterobacter cloacae, 10^-4 dilution, BL-S1052 adjusted for 97.5% content of BL-S640
Source text: as §1, §2, §3, §4, §5, §6

Ent. cloacae A9656 = test: Antibiotic spectrum in nutrient broth, MIC; format: cell-based; settings: Enterobacter cloacae, 10^-4 dilution, BL-S1052 adjusted for 97.5% content of BL-S640
Source text: as §1, §2, §3, §4, §5, §6

E. coli A9675 = test: Antibiotic spectrum in nutrient broth, MIC; format: cell-based; settings: Escherichia coli, 10^-4 dilution, BL-S1052 adjusted for 97.5% content of BL-S640
Source text: as §1, §2, §3, §4, §5, §6

Ser. marcescens A20019 = test: Antibiotic spectrum in nutrient broth, MIC; format: cell-based; settings: Serratia marcescens, 10^-4 dilution, BL-S1052 adjusted for 97.5% content of BL-S640
Source text: as §1, §2, §3, §4, §5, §6

K. pneumoniae A9977 = test: Antibiotic spectrum in nutrient broth, MIC; format: cell-based; settings: Klebsiella pneumoniae, 10^-4 dilution, BL-S1052 adjusted for 97.5% content of BL-S640
Source text: as §1, §2, §3, §4, §5, §6

[3] = Mouse blood levels after PO administration; format: in vivo; settings: PO 100 mg./kg.
Experimental: ______________________________________
Mouse Blood Levels after PO
Administration of 100 mg./kg. Body Weight
The compounds were prepared in Tween-CMC. BL-S640 was used as standard fo

Pr. morganii A15153 = test: Antibiotic spectrum in nutrient broth, MIC; format: cell-based; settings: Morganella morganii, 10^-4 dilution, BL-S1052 adjusted for 97.5% content of BL-S640
Source text: as §1, §2
(§7) This adjustment was also mad
as §5, §6

Ent. cloacae A9659 = test: Antibiotic spectrum in nutrient broth, MIC; format: cell-based; settings: Enterobacter cloacae, 10^-4 dilution, BL-S1052 adjusted for 97.5% content of BL-S640
Source text: as §1, §2, §7, §5, §6

S. aureus BX1633 = test: Antibiotic spectrum in nutrient broth, MIC; format: cell-based; settings: Staphylococcus aureus
Source text: as §1, §2, §7, §5, §6

[4] = Urinary recovery after IM administration to rats; format: in vivo; settings: rat, urine, read-out: Urinary recovery, percentage of administered dose recovered; for dose excreted at 6 h: 0-6 hr
Experimental: Urinary Recovery after IM
Administration of 50 and 10 mg./kg. to Rats
(§8) The compounds were prepared in 0.01% phosphate buffer. BL-S640 was used a
(§9) standard for all compounds.

Str. pyogenes A9604 = test: Antibiotic spectrum in nutrient broth, MIC; format: cell-based; settings: Streptococcus pyogenes, 10^-3 dilution of overnight culture, 45% AAB + 5% serum + 50% broth, BL-S1052 adjusted for 97.5% content of BL-S640
Source text: as §1
(§10) *45% AAB + 5% serum + 50% broth listed above.
as §2, §3, §4, §5, §6

S. pneumoniae A9585 = test: Antibiotic spectrum in nutrient broth, MIC; format: cell-based; settings: Streptococcus pneumoniae, 10^-3 dilution of overnight culture, 45% AAB + 5% serum + 50% broth, BL-S1052 adjusted for 97.5% content of BL-S640
Source text: as §1, §10, §2, §3, §4, §5, §6

[5] = Mouse blood levels after IM administration; format: in vivo; settings: IM 10 mg./kg.
Experimental: Mouse Blood Levels after IM
Administration of 10 mg./kg. Body Weight
Blood Levels (mcg./ml.)
as §8, §9

[6] = Liquid chromatography, % free BL-S640 present (hydrolysis in solution); format: physicochemical; settings: 1 mg./ml.
Experimental: 5. Liquid Chromatography (concentration = 1 mg./ml.)
Time in Hours % Free BL-S640 Present

Bio-assay (mcg./mg.) = test: Bio-assay (mcg./mg.)
Experimental: 7-[D-α-amino-α-(p-hydroxyphenyl)acetamido]-3-(1,2,3-triazol-5-ylthiomethyl)-3-cephem-4-carboxylic acid methanol solvate (15 g.) was slurried in 60 ml. of water. The pH was raised to 6.5 by addition of 4N NaOH and the mixture was passed through a 200 mesh screen. The reaction mixture was slurried at room temperature for 2 hours, the pH being maintained at 6.5 during this period. The crystals were removed by filtration, washed with 20 ml. of water and air dried at 37° C. for 24 hours to give 11.5 g. of title crystalline product. Bio assay = 924 mcg./mg. (average % H2 O, K.F. = 5.26).
7-[D-α-amino-α-(p-hydroxyphenyl)acetamido]-3-(1,2,3-triazol-5-ylthiomethyl)-3-cephem-4-carboxylic acid methanol solvate (200 mesh; 10.0 g.) substantially free of propylene glycol is slurried in 30-40 ml. of deionized water at ambient room temperature (20°-25° C.) to give a pH 3-4 aqueous suspension. NaOH (40%) is slowly added with rapid stirring to bring the pH to 6.3-6.7. The mixture is slurried at pH 6.3-6.7 for 2 hours. The crystals are removed by filtration, washed with water and air dried at room temperature for 24 hours to give a 75-80% weight yield of 950-1000 mcg./mg. crystals of 7-[D-α-amino-α-(p-hydroxyphenyl)acetamido]-3-(1,2,3-triazol-5-ylthiomethyl)-3-cephem-4-carboxylic acid dihydrate. […] H2 O, K.F. = 6.56.

Water solubility = format: physicochemical
Experimental: The sodium and potassium salts of formula I may be dissolved in water to form relatively concentrated solutions of at least 250 mg./ml. of activity. Concentrations of 250 mg./ml. of activity (pH 5.7-7.2) of these salts have acceptable aqueous stabilities.
g. Water solubility = Approximately 10 mg./ml. in water at 23° C.
3. Solubility = greater than 400 mg./ml.

[7] = SMITHA9537, 10^-4 dilution, nutrient broth
[8] = SMITHA9537, +50% serum, 10^-4 dilution
[9] = BX1633, 10^-2 dilution, A9606, BL-S1052 adjusted for 97.5% content of BL-S640, read-out: MIC
[10] = 10 mg/kg, IM 10 mg./kg., 0-24 hr
[11] = 10 mg/kg, IM 10 mg./kg., 6-24 hr
[12] = 50 mg/kg, IM 50 mg./kg., 0-24 hr
[13] = 50 mg/kg, IM 50 mg./kg., 6-24 hr

Structure (SMILES) | Antibiotically active spots in urine [1] | MIC (K. pneumoniae A15130) | MIC (Sal. enteritidis A9531) | MIC (Ps. Aeruginosa A9843A) | MIC (S. aureus Smith A9537; [7]) | MIC (S. aureus Smith A9537; [8]) | MIC [2] | MIC (E. coli Juhl A15119) | MIC (Pr. mirabilis A9900) | MIC (Ent. cloacae A9657) | MIC (Ent. cloacae A9656) | MIC (E. coli A9675) | MIC (Ser. marcescens A20019) | MIC (K. pneumoniae A9977) | concentration at 0.5 h [3] | concentration at 1 h [3] | concentration at 2 h [3] | concentration at 3.5 h [3] | MIC (Pr. morganii A15153) | MIC (Ent. cloacae A9659) | other results
N[C@@H](C(=O)N[C@@H]1C(=O)N2C(C(=O)O)=C(CSc3c[nH]nn3)CS[C@H]12)c1ccc(O)cc1 [BL-S640, 7-[D-α-amino-α-(p-hydroxyphenyl)acetamido]-3-(1,2,3-triazol-5-ylthiomethyl)-3-cephem-4-carboxylic acid] | Two spots identically located | 1 µg/mL (≈ 2.16 µM) | 0.25 µg/mL (≈ 0.541 µM) | > 125 µg/mL | 0.13 µg/mL (≈ 0.281 µM) | 2 µg/mL (≈ 4.32 µM) | 8 µg/mL (≈ 17.3 µM) | 0.5 µg/mL (≈ 1.08 µM) | 0.5 µg/mL (≈ 1.08 µM) | 0.5 µg/mL (≈ 1.08 µM) | > 125 µg/mL | 2 µg/mL (≈ 4.32 µM) | > 125 µg/mL | 0.5 µg/mL (≈ 1.08 µM) | 53400 ng/mL | 45400 ng/mL | 27200 ng/mL | 10700 ng/mL | 32 µg/mL (≈ 69.2 µM) | 32 µg/mL (≈ 69.2 µM) | MIC (S. aureus BX1633; [9]): 4 µg/mL (≈ 8.65 µM); MIC (S. aureus BX1633; BX1633, 10^-3 dilution, A9696, BL-S1052 adjusted for 97.5% content of BL-S640, read-out: MIC): 0.25 µg/mL (≈ 0.541 µM); dose excreted at 6 h ([4]; 10 mg/kg, IM 10 mg./kg.): 24.3%; dose excreted at 24 h [4, 10]: 25.7%; dose excreted at 24 h [4, 11]: 1.4%; dose excreted at 6 h ([4]; 50 mg/kg, IM 50 mg./kg.): 44.5%; dose excreted at 24 h [4, 12]: 47.2%; dose excreted at 24 h [4, 13]: 2.7%; MIC (Str. pyogenes A9604): 0.03 µg/mL; MIC (S. pneumoniae A9585): 0.06 µg/mL; concentration at 0.25 h [5]: 15700 ng/mL; concentration at 0.5 h [5]: 13200 ng/mL; concentration at 1 h [5]: 9500 ng/mL; concentration at 1.5 h [5]: 6800 ng/mL
O=C(O)C1=C(CSc2c[nH]nn2)CSC2C(N3C(=O)C(c4ccc(O)cc4)NC3c3ccco3)C(=O)N12 (centres unmarked) [BL-S1052] | Two spots identically located | 1 µg/mL (≈ 1.85 µM) | 0.13 µg/mL (≈ 0.24 µM) | > 125 µg/mL | 0.13 µg/mL (≈ 0.24 µM) | 2 µg/mL (≈ 3.7 µM) | 4 µg/mL (≈ 7.4 µM) | 1 µg/mL (≈ 1.85 µM) | 0.5 µg/mL (≈ 0.925 µM) | 0.5 µg/mL (≈ 0.925 µM) | > 125 µg/mL | 2 µg/mL (≈ 3.7 µM) | > 125 µg/mL | 0.5 µg/mL (≈ 0.925 µM) | 45200 ng/mL | 48100 ng/mL | 31900 ng/mL | 14400 ng/mL | 32 µg/mL (≈ 59.2 µM) | 32 µg/mL (≈ 59.2 µM) | % Free BL-S640 Present ([6]; 0 hours): 69.2%; % free BL-S640 present at 1 h ([6]; 1 hour): 74.2%; % free BL-S640 present at 2 h ([6]; 2 hours): 94.5%; Hydrolysis of the derivative to parent compound BL-S640 and its presumed metabolite [1]: complete hydrolysis; Bio-assay (Bio-assay (mcg./mg.)): 775 to 800 µg/mg; MIC (S. aureus BX1633; BX1633): 0.25 µg/mL (≈ 0.462 µM); MIC (S. aureus BX1633; [9]): 2 µg/mL (≈ 3.7 µM); solubility (Water solubility): > 400 mg/mL; dose excreted at 6 h ([4]; 10 mg/kg, IM 10 mg./kg.): 21.7%; dose excreted at 24 h [4, 10]: 24.1%; dose excreted at 24 h [4, 11]: 2.4%; dose excreted at 6 h ([4]; 50 mg/kg, IM 50 mg./kg.): 40.3%; dose excreted at 24 h [4, 12]: 42.4%; dose excreted at 24 h [4, 13]: 2.1%; MIC (Str. pyogenes A9604): 0.03 µg/mL; MIC (S. pneumoniae A9585): 0.06 µg/mL; concentration at 0.25 h [5]: 15100 ng/mL; concentration at 0.5 h [5]: 15100 ng/mL; concentration at 1 h [5]: 11500 ng/mL; concentration at 1.5 h [5]: 7800 ng/mL
